Assay results: patent US20020137929A1, “1 - (3-heterocyclylphenyl) isothiourea, -isourea, -guanidine and -amidine herbicidal agents” (Intellectual Property Department, BASF Aktiengesellschaft, priority 1998, published 2002)

How the values were obtained:
AMBEL (Ragweed, Common) = test: Postemergence herbicidal evaluation; assay type: in vivo, Ambrosia artemisifolia; conditions: postemergence
How it was run: (§1)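 Seedlings grown about two weeks were sprayed at 40 psi with compound dispersed in 50/50 acetone/water plus 0.5% TWEEN 20, at about 0.0156 to 0.500 kg/ha. Plants were kept in the greenhouse and scored 4–5 weeks later on a 0–9 visual scale against untreated controls.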

CASOB (Sicklepod) [1] = test: Postemergence herbicidal evaluation; assay type: in vivo, Cassia obtusifolia; conditions: postemergence
How it was run: as §1

GALAP (Galium) = test: Postemergence herbicidal evaluation; assay type: in vivo, Galium aparine; conditions: postemergence
How it was run: as §1

[2] = tested on: IPOHE (Morningglory, Ivyleaf); test: Postemergence herbicidal evaluation; assay type: in vivo, Ipomoea hederacea; conditions: postemergence
How it was run: as §1

ABUTH (Velvetleaf) = test: Preemergence herbicidal evaluation; assay type: in vivo, Abutilon theophrasti; conditions: rated 4-5 weeks after treatment, rating scale 0-9
How it was run: (§2)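 Each species is sown separately in potting soil over roughly an inch of soil before any emergence. The soil surface then receives an aqueous acetone spray delivering about 0.0156 to 0.500 kg/ha of compound. After four to five weeks, injury is scored from 0 to 9 relative to a control.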

CASOB (Sicklepod) [3] = test: Preemergence herbicidal evaluation; assay type: in vivo, Cassia obtusifolia; conditions: rated 4-5 weeks after treatment, rating scale 0-9
How it was run: as §2

[4] = tested on: IPOHE (Morningglory, Ivyleaf); test: Preemergence herbicidal evaluation; assay type: in vivo, Ipomoea hederacea; conditions: rated 4-5 weeks after treatment, rating scale 0-9
How it was run: as §2

ECHCG (Barnyardgrass) = test: Preemergence herbicidal evaluation; assay type: in vivo, Echinochloa crus-galli; conditions: rated 4-5 weeks after treatment, rating scale 0-9
How it was run: as §2

[5] = tested on: GLXMAW (Soybean, Williams); test: Preemergence herbicidal evaluation; assay type: in vivo, Glycine max, (L.) Merr. cv Williams; conditions: rated 4-5 weeks after treatment, rating scale 0-9
How it was run: as §2

[6] = tested on: TRZAWR (Wheat, Winter, cv Riband); test: Preemergence herbicidal evaluation; assay type: in vivo, Triticum aestivum; conditions: rated 4-5 weeks after treatment, rating scale 0-9
How it was run: as §2

ZEAMX (Corn, Field) = test: Preemergence herbicidal evaluation; assay type: in vivo, Zea mays; conditions: rated 4-5 weeks after treatment, rating scale 0-9
How it was run: as §2

MOOVA (Monochoria) = test: Preemergence weed control under flooded paddy conditions; assay type: in vivo, Monochoria vaginalis; conditions: rated 3-4 weeks after treatment
How it was run: (§3)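 First, seeds or propagules go into the top 0.5 cm of silt loam; next, water is held 1.5 to 3 cm over the soil; then compound (50/50 acetone/water) is pipetted into it at about 0.0313 to 0.500 kg/ha; finally plants are rated visually 0-9 after three to four weeks.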

[7] = tested on: SAGPY (Arrowhead (Pygmaea)); test: as above; assay type: in vivo, Sagittaria pygmaea; conditions: rated 3-4 weeks after treatment
How it was run: as §3

Cn1c(C(F)(F)F)cc(=O)n(-c2cc(N=C3SCC(=O)N3C3CC3)c(Cl)cc2F)c1=O [Compound 152, 3-{4-Chloro-5-[(3-cyclopropyl-4-oxo-2-thiazolidinylidene)amino]-2-fluorophenyl}-1-methyl-6-(trifluoromethyl)-2,4(1H,3H)-pyrimidinedione]
herbicidal rating AMBEL (AMBEL (Ragweed, Common); rate 0.0156 kg/ha): 2.0 | herbicidal rating AMBEL (AMBEL (Ragweed, Common); rate 0.0313 kg/ha): 4.0 | herbicidal rating AMBEL (AMBEL (Ragweed, Common); rate 0.0625 kg/ha): 9.0 | herbicidal rating CASOB (CASOB (Sicklepod) [1]; rate 0.0156 kg/ha): 0.0 | herbicidal rating CASOB (CASOB (Sicklepod) [1]; rate 0.0313 kg/ha): 0.0 | herbicidal rating CASOB (CASOB (Sicklepod) [1]; rate 0.0625 kg/ha): 3.0 | herbicidal rating GALAP (GALAP (Galium); rate 0.0156 kg/ha): 0.0 | herbicidal rating GALAP (GALAP (Galium); rate 0.0313 kg/ha): 0.0 | herbicidal rating GALAP (GALAP (Galium); rate 0.0625 kg/ha): 2.0 | herbicidal rating IPOHE ([2]; rate 0.0156 kg/ha): 7.0 | herbicidal rating IPOHE ([2]; rate 0.0313 kg/ha): 9.0 | herbicidal rating IPOHE ([2]; rate 0.0625 kg/ha): 9.0 | Preemergence herbicidal rating ABUTH (ABUTH (Velvetleaf); rate 0.0313 kg/ha): 0.0 | Preemergence herbicidal rating ABUTH (ABUTH (Velvetleaf); rate 0.0625 kg/ha): 0.0 | Preemergence herbicidal rating ABUTH (ABUTH (Velvetleaf); rate 0.1250 kg/ha): 9.0 | Preemergence herbicidal rating ABUTH (ABUTH (Velvetleaf); rate 0.2500 kg/ha): 9.0 | Preemergence herbicidal rating CASOB (CASOB (Sicklepod) [3]; rate 0.0313 kg/ha): 0.0 | Preemergence herbicidal rating CASOB (CASOB (Sicklepod) [3]; rate 0.0625 kg/ha): 1.0 | Preemergence herbicidal rating CASOB (CASOB (Sicklepod) [3]; rate 0.1250 kg/ha): 0.0 | Preemergence herbicidal rating CASOB (CASOB (Sicklepod) [3]; rate 0.2500 kg/ha): 3.0 | Preemergence herbicidal rating IPOHE ([4]; rate 0.0313 kg/ha): 0.0 | Preemergence herbicidal rating IPOHE ([4]; rate 0.0625 kg/ha): 1.0 | Preemergence herbicidal rating IPOHE ([4]; rate 0.1250 kg/ha): 4.0 | Preemergence herbicidal rating IPOHE ([4]; rate 0.2500 kg/ha): 7.0 | Preemergence herbicidal rating ECHCG (ECHCG (Barnyardgrass); rate 0.0313 kg/ha): 0.0 | Preemergence herbicidal rating ECHCG (ECHCG (Barnyardgrass); rate 0.0625 kg/ha): 0.0 | Preemergence herbicidal rating ECHCG (ECHCG (Barnyardgrass); rate 0.1250 kg/ha): 1.0 | Preemergence herbicidal rating ECHCG (ECHCG (Barnyardgrass); rate 0.2500 kg/ha): 1.0 | Preemergence herbicidal rating GLXMAW ([5]; rate 0.0313 kg/ha): 0.0 | Preemergence herbicidal rating GLXMAW ([5]; rate 0.0625 kg/ha): 2.0 | Preemergence herbicidal rating GLXMAW ([5]; rate 0.1250 kg/ha): 2.0 | Preemergence herbicidal rating GLXMAW ([5]; rate 0.2500 kg/ha): 2.0 | Preemergence herbicidal rating TRZAWR ([6]; rate 0.0313 kg/ha): 0.0 | Preemergence herbicidal rating TRZAWR ([6]; rate 0.0625 kg/ha): 1.0 | Preemergence herbicidal rating TRZAWR ([6]; rate 0.1250 kg/ha): 1.0 | Preemergence herbicidal rating TRZAWR ([6]; rate 0.2500 kg/ha): 1.0 | Preemergence herbicidal rating ZEAMX (ZEAMX (Corn, Field); rate 0.0313 kg/ha): 0.0 | Preemergence herbicidal rating ZEAMX (ZEAMX (Corn, Field); rate 0.0625 kg/ha): 1.0 | Preemergence herbicidal rating ZEAMX (ZEAMX (Corn, Field); rate 0.1250 kg/ha): 1.0 | Preemergence herbicidal rating ZEAMX (ZEAMX (Corn, Field); rate 0.2500 kg/ha): 2.0 | herbicidal effect rating, MOOVA (MOOVA (Monochoria); 0.0625 kg/ha): 3.0 | herbicidal effect rating, MOOVA (MOOVA (Monochoria); 0.1250 kg/ha): 3.0 | herbicidal effect rating, MOOVA (MOOVA (Monochoria); 0.2500 kg/ha): 3.0 | herbicidal effect rating, SAGPY ([7]; 0.0625 kg/ha): 0.0 | herbicidal effect rating, SAGPY ([7]; 0.1250 kg/ha): 0.0 | herbicidal effect rating, SAGPY ([7]; 0.2500 kg/ha): 0.0

COc1cccc(CN2C(=O)CSC2=Nc2cc(-n3c(=O)cc(C(F)(F)F)n(C)c3=O)c(F)cc2Cl)c1 [Compound 137, 3-{4-Chloro-2-fluoro-5-{[3-(m-methoxybenzyl)-4-oxo-2-thiazolidinylidene]amino}phenyl}-1-methyl-6-(trifluoromethyl)-2,4(1H,3H)-pyrimidinedione]
herbicidal rating AMBEL (AMBEL (Ragweed, Common); rate 0.0156 kg/ha): 9.0 | herbicidal rating AMBEL (AMBEL (Ragweed, Common); rate 0.0313 kg/ha): 9.0 | herbicidal rating AMBEL (AMBEL (Ragweed, Common); rate 0.0625 kg/ha): 9.0 | herbicidal rating CASOB (CASOB (Sicklepod) [1]; rate 0.0156 kg/ha): 1.0 | herbicidal rating CASOB (CASOB (Sicklepod) [1]; rate 0.0313 kg/ha): 1.0 | herbicidal rating CASOB (CASOB (Sicklepod) [1]; rate 0.0625 kg/ha): 4.0 | herbicidal rating GALAP (GALAP (Galium); rate 0.0156 kg/ha): 1.0 | herbicidal rating GALAP (GALAP (Galium); rate 0.0313 kg/ha): 1.0 | herbicidal rating GALAP (GALAP (Galium); rate 0.0625 kg/ha): 3.0 | herbicidal rating IPOHE ([2]; rate 0.0156 kg/ha): 9.0 | herbicidal rating IPOHE ([2]; rate 0.0313 kg/ha): 9.0 | herbicidal rating IPOHE ([2]; rate 0.0625 kg/ha): 9.0 | Preemergence herbicidal rating ABUTH (ABUTH (Velvetleaf); rate 0.0625 kg/ha): 0.0 | Preemergence herbicidal rating ABUTH (ABUTH (Velvetleaf); rate 0.1250 kg/ha): 0.0 | Preemergence herbicidal rating ABUTH (ABUTH (Velvetleaf); rate 0.2500 kg/ha): 9.0 | Preemergence herbicidal rating CASOB (CASOB (Sicklepod) [3]; rate 0.0625 kg/ha): 0.0 | Preemergence herbicidal rating CASOB (CASOB (Sicklepod) [3]; rate 0.1250 kg/ha): 0.0 | Preemergence herbicidal rating CASOB (CASOB (Sicklepod) [3]; rate 0.2500 kg/ha): 0.0 | Preemergence herbicidal rating IPOHE ([4]; rate 0.0625 kg/ha): 0.0 | Preemergence herbicidal rating IPOHE ([4]; rate 0.1250 kg/ha): 0.0 | Preemergence herbicidal rating IPOHE ([4]; rate 0.2500 kg/ha): 1.0 | Preemergence herbicidal rating ECHCG (ECHCG (Barnyardgrass); rate 0.0625 kg/ha): 0.0 | Preemergence herbicidal rating ECHCG (ECHCG (Barnyardgrass); rate 0.1250 kg/ha): 0.0 | Preemergence herbicidal rating ECHCG (ECHCG (Barnyardgrass); rate 0.2500 kg/ha): 0.0 | Preemergence herbicidal rating GLXMAW ([5]; rate 0.0625 kg/ha): 0.0 | Preemergence herbicidal rating GLXMAW ([5]; rate 0.1250 kg/ha): 0.0 | Preemergence herbicidal rating GLXMAW ([5]; rate 0.2500 kg/ha): 1.0 | Preemergence herbicidal rating TRZAWR ([6]; rate 0.0625 kg/ha): 0.0 | Preemergence herbicidal rating TRZAWR ([6]; rate 0.1250 kg/ha): 0.0 | Preemergence herbicidal rating TRZAWR ([6]; rate 0.2500 kg/ha): 0.0 | Preemergence herbicidal rating ZEAMX (ZEAMX (Corn, Field); rate 0.0625 kg/ha): 0.0 | Preemergence herbicidal rating ZEAMX (ZEAMX (Corn, Field); rate 0.1250 kg/ha): 0.0 | Preemergence herbicidal rating ZEAMX (ZEAMX (Corn, Field); rate 0.2500 kg/ha): 0.0 | herbicidal effect rating, MOOVA (MOOVA (Monochoria); 0.0313 kg/ha): 4.0 | herbicidal effect rating, MOOVA (MOOVA (Monochoria); 0.0625 kg/ha): 5.0 | herbicidal effect rating, MOOVA (MOOVA (Monochoria); 0.1250 kg/ha): 5.0 | herbicidal effect rating, MOOVA (MOOVA (Monochoria); 0.2500 kg/ha): 8.0 | herbicidal effect rating, SAGPY ([7]; 0.0313 kg/ha): 0.0 | herbicidal effect rating, SAGPY ([7]; 0.0625 kg/ha): 0.0 | herbicidal effect rating, SAGPY ([7]; 0.1250 kg/ha): 0.0 | herbicidal effect rating, SAGPY ([7]; 0.2500 kg/ha): 3.0
